Results: patent US12391679B2, “Benzamide-substituted bicyclic imidazo- and pyrazolo-fused -pyridine, -pyrimide, and -pyridazine compounds for treatment of inflammatory diseases” (ONCO3R Therapeutics BV, priority 2019, dated 2025)

How the values were obtained:
Type in all cases: biochemical
[1] = molecular target: T1, SIK1 (Homo sapiens, UniProt P57059); experiment: ADP-Glo kinase assay, SIK1
T1 construct: purchased Carna Biosciences 02-131
Protocol: (§1) The ADP-Glo™ kinase assay is a luminescent technology assay which measures the ADP formed from a kinase reaction. […] In a second step the kinase reactions are terminated and all the remaining ATP is depleted. In a final step the ADP is converted into ATP and this newly synthesized ATP is measured by using a luciferase/luciferin reaction. The generated light is measured using an Envision plate reader, wherein the luminescent signal obtained positively correlates with the kinase activity.
(§2) 1% DMSO and 10 μM staurosporine final concentrations are used as negative and positive controls.
(§3) 2 μL enzyme-substrate mixture is added to the assay plates.
(§4) The reaction is started by adding 2 μL diluted ATP on the assay plates. Plates are centrifuged for a few seconds at 1000 rpm and gently shaken for […] followed by an incubation at RT for 120 min.
(§5) The reactions are stopped and the unconsumed ATP is depleted by adding 5 μL ADP-Glo Reagent (Promega, Cat #V9120) to the reaction. The plates are centrifuged for a few seconds at 1000 rpm and incubated at RT for 40 min (ATP depletion).
(§6) The ADP is converted to ATP and luciferase and luciferin is introduced to detect ATP by adding 10 μL Kinase Detection Reagent (Promega, Cat #V913B+V914r) to the reaction. The plates are centrifuged for a few seconds at 1000 rpm and incubated at RT for 30 min (ADP detection).
(§7) Luminescence is measured on an Envision plate reader (PerkinElmer Inc.).

[2] = molecular target: T2, SIK2 (Homo sapiens, UniProt Q9H0K1); experiment: ADP-Glo kinase assay, SIK2
T2 construct: purchased ThermoFisher Scientific PV4792
T2 sequence (Q9H0K1 whole entry): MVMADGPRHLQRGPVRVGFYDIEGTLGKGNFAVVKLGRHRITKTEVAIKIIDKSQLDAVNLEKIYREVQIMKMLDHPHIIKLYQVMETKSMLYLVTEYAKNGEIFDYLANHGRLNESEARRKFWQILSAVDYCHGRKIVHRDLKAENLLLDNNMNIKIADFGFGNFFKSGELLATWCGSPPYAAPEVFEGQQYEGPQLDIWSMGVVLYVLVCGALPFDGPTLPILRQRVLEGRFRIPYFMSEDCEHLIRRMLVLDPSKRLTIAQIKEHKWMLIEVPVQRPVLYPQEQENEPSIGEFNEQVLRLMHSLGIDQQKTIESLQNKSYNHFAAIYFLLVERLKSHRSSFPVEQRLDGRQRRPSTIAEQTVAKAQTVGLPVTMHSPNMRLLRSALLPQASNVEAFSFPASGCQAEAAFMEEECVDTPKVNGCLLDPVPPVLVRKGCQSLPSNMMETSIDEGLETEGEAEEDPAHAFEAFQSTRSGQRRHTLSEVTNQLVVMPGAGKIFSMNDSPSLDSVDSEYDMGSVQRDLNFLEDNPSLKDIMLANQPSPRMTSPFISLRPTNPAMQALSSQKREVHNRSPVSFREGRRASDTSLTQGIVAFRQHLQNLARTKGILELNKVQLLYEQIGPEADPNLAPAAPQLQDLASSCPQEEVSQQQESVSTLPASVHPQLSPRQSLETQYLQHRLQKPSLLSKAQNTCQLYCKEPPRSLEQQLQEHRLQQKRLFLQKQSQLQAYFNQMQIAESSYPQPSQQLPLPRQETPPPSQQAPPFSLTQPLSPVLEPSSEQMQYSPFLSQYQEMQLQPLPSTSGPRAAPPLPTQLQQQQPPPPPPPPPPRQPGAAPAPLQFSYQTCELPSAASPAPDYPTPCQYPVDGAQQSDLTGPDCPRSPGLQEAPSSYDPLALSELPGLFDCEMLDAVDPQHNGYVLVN
Protocol: as §1, §2, §3, §4, §5, §6, §7

[3] = molecular target: T3, SIK3 (Homo sapiens, UniProt Q9Y2K2); experiment: ADP-Glo kinase assay, SIK3
T3 construct: purchased SignalChem S12-11G-100
T3 sequence (Q9Y2K2 59-365 limits assumed): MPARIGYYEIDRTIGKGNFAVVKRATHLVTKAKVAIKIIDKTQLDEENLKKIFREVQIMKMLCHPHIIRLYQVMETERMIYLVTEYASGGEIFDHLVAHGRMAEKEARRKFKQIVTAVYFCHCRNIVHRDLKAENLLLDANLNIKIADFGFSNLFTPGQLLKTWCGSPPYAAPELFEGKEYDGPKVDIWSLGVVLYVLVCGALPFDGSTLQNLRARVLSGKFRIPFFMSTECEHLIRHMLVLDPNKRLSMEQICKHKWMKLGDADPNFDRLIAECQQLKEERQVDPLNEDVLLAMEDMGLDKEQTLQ
Protocol: as §1, §2, §3, §4, §5, §6, §7

T1 sequence (P57059 whole entry): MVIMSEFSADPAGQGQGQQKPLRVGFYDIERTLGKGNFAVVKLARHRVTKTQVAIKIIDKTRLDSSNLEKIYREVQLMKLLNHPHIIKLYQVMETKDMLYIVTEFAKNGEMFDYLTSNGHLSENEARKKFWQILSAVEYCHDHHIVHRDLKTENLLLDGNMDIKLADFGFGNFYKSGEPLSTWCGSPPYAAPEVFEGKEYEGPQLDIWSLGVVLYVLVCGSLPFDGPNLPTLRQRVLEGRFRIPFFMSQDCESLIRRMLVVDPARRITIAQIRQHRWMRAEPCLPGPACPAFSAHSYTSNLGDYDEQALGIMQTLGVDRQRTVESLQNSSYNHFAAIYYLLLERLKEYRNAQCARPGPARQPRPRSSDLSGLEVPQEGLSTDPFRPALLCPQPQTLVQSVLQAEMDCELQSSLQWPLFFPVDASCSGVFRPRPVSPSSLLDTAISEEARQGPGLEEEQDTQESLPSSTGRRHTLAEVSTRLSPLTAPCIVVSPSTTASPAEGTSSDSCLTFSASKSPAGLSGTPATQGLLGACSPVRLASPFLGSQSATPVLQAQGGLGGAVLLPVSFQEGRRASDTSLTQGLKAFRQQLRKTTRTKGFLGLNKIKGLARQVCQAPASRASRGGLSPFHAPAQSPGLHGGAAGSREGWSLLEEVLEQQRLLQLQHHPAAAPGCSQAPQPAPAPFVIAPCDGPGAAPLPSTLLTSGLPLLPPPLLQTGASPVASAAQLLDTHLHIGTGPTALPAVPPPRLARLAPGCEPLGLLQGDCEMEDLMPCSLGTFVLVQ

SMILES	IC50 [1] [nM]	IC50 [2] [nM]	IC50 [3] [nM]
COc1cc(-c2cnc3cc(C4CCNCC4)ccn23)cc(OC(F)F)c1C(=O)NC1CC1 [Cpd 66, N-cyclopropyl-2-(difluoromethoxy)-6-methoxy-4-[7-(4-piperidyl)imidazo[1,2-a]pyridin-3-yl]benzamide]	> 500	10 to 100	10 to 100
COc1cc(-c2cnc3cc(C(C)(C)C#N)ccn23)cc(OC(F)F)c1C(=O)NC(C)C(F)F (stereo not drawn) [Cpd 71, 4-[7-(1-cyano-1-methyl-ethyl)imidazo[1,2-a]pyridin-3-yl]-2-(difluoromethoxy)-N-(2,2-difluoro-1-methyl-ethyl)-6-methoxy-benzamide]	> 500	> 500	10 to 100
COc1cc(-c2cnc3cc(C(C)(C)C#N)ccn23)cc(OC(F)F)c1C(=O)NCC(C)C [Cpd 72, 4-[7-(1-cyano-1-methyl-ethyl)imidazo[1,2-a]pyridin-3-yl]-2-(difluoromethoxy)-N-isobutyl-6-methoxy-benzamide]	> 500	> 500	10 to 100
COc1cc(-c2cnc3cc(C(C)(C)C#N)ccn23)cc(OC(F)F)c1C(=O)NC1CS(=O)(=O)C1 [Cpd 73, 4-[7-(1-cyano-1-methyl-ethyl)imidazo[1,2-a]pyridin-3-yl]-2-(difluoromethoxy)-N-(1,1-dioxothietan-3-yl)-6-methoxy-benzamide]	> 500	> 500	10 to 100
COc1cc(-c2cnc3cc(C(C)(C)C#N)ccn23)cc(OC(F)F)c1C(=O)N1CC(O)(C2CC2)C1 [Cpd 74, 2-[3-[4-(3-cyclopropyl-3-hydroxy-azetidine-1-carbonyl)-3-(difluoromethoxy)-5-methoxy-phenyl]imidazo[1,2-a]pyridin-7-yl]-2-methyl-propanenitrile]	> 500	> 500	10 to 100
COc1cc(-c2cnc3cc(C(C)(C)C#N)ccn23)cc(OC(F)F)c1C(=O)N1CC(O)(C(F)(F)F)C1 [Cpd 75, 2-[3-[3-(difluoromethoxy)-4-[3-hydroxy-3-(trifluoromethyl)azetidine-1-carbonyl]-5-methoxy-phenyl]imidazo[1,2-a]pyridin-7-yl]-2-methyl-propanenitrile]	> 500	100 to 500	0.01 to 10
COc1cc(-c2cnc3cc(C(C)(C)C#N)ccn23)cc(OC(F)F)c1C(=O)N1CC(C(F)(F)F)C1 [Cpd 76, 2-[3-[3-(difluoromethoxy)-5-methoxy-4-[3-(trifluoromethyl)azetidine-1-carbonyl]phenyl]imidazo[1,2-a]pyridin-7-yl]-2-methyl-propanenitrile]	> 500	100 to 500	0.01 to 10
COc1cc(-c2cnc3cc(C(C)(C)C#N)ccn23)cc(OC(F)F)c1C(=O)NC(C)C [Cpd 78, 4-[7-(1-cyano-1-methyl-ethyl)imidazo[1,2-a]pyridin-3-yl]-2-(difluoromethoxy)-N-isopropyl-6-methoxy-benzamide]	> 500	> 500	10 to 100
COc1cc(-c2cnc3cc(C(C)(C)C#N)ccn23)cc(OC(F)F)c1C(=O)NC1(C(C)C)CC1 [Cpd 80, 4-[7-(1-cyano-1-methyl-ethyl)imidazo[1,2-a]pyridin-3-yl]-2-(difluoromethoxy)-N-(1-isopropylcyclopropyl)-6-methoxy-benzamide]	> 500	> 500	> 500
COCC1(NC(=O)c2c(OC)cc(-c3cnc4cc(C(C)(C)C#N)ccn34)cc2OC(F)F)CC1 [Cpd 81, 4-[7-(1-cyano-1-methyl-ethyl)imidazo[1,2-a]pyridin-3-yl]-2-(difluoromethoxy)-6-methoxy-N-[1-(methoxymethyl)cyclopropyl]benzamide]	> 500	> 500	> 500
COc1cc(-c2cnc3cc(C(C)(C)C#N)ccn23)cc(OC(F)F)c1C(=O)N(C)CC1CC1 [Cpd 82, 4-[7-(1-cyano-1-methyl-ethyl)imidazo[1,2-a]pyridin-3-yl]-N-(cyclopropylmethyl)-2-(difluoromethoxy)-6-methoxy-N-methyl-benzamide]	> 500	> 500	> 500
CCC1(NC(=O)c2c(OC)cc(-c3cnc4cc(C(C)(C)C#N)ccn34)cc2OC(F)F)CC1 [Cpd 83, 4-[7-(1-cyano-1-methyl-ethyl)imidazo[1,2-a]pyridin-3-yl]-2-(difluoromethoxy)-N-(1-ethylcyclopropyl)-6-methoxy-benzamide]	> 500	> 500	> 500
COc1cc(-c2cnc3cc(C(C)(C)C#N)ccn23)cc(OC(F)F)c1C(=O)N(C)C1CC1 [Cpd 84, 4-[7-(1-cyano-1-methyl-ethyl)imidazo[1,2-a]pyridin-3-yl]-N-cyclopropyl-2-(difluoromethoxy)-6-methoxy-N-methyl-benzamide]	> 500	> 500	100 to 500
COc1cc(-c2cnc3cc(C(C)(C)C#N)ccn23)cc(OC(F)F)c1C(=O)NCC1CCOC1 (stereo not drawn) [Cpd 85, 4-[7-(1-cyano-1-methyl-ethyl)imidazo[1,2-a]pyridin-3-yl]-2-(difluoromethoxy)-6-methoxy-N-(tetrahydrofuran-3-ylmethyl)benzamide]	> 500	> 500	100 to 500
COc1cc(-c2cnc3cc(C(C)(C)C#N)ccn23)cc(OC(F)F)c1C(=O)NC1CCOC1 (stereo not drawn) [Cpd 86, 4-[7-(1-cyano-1-methyl-ethyl)imidazo[1,2-a]pyridin-3-yl]-2-(difluoromethoxy)-6-methoxy-N-tetrahydrofuran-3-yl-benzamide]	> 500	> 500	10 to 100
COc1cc(-c2cnc3cc(C(C)(C)C#N)ccn23)cc(OC(F)F)c1C(=O)NC(CO)C1CC1 (stereo not drawn) [Cpd 87, 4-[7-(1-cyano-1-methyl-ethyl)imidazo[1,2-a]pyridin-3-yl]-N-(1-cyclopropyl-2-hydroxy-ethyl)-2-(difluoromethoxy)-6-methoxy-benzamide]	> 500	> 500	> 500
COc1cc(-c2cnc3cc(C(C)(C)C#N)ccn23)cc(OC(F)F)c1C(=O)NC1CC(F)(F)C1 [Cpd 88, 4-[7-(1-cyano-1-methyl-ethyl)imidazo[1,2-a]pyridin-3-yl]-N-(3,3-difluorocyclobutyl)-2-(difluoromethoxy)-6-methoxy-benzamide]	> 500	> 500	10 to 100
C#CC1(O)CN(C(=O)c2c(OC)cc(-c3cnc4cc(C(C)(C)C#N)ccn34)cc2OC(F)F)C1 [Cpd 89, 2-[3-[3-(difluoromethoxy)-4-(3-ethynyl-3-hydroxy-azetidine-1-carbonyl)-5-methoxy-phenyl]imidazo[1,2-a]pyridin-7-yl]-2-methyl-propanenitrile]	> 500	> 500	10 to 100
COc1cc(-c2cnc3cc(C(C)(C)C#N)ccn23)cc(OC(F)F)c1C(=O)NCC1CCC1 [Cpd 90, 4-[7-(1-cyano-1-methyl-ethyl)imidazo[1,2-a]pyridin-3-yl]-N-(cyclobutylmethyl)-2-(difluoromethoxy)-6-methoxy-benzamide]	> 500	> 500	10 to 100
COc1cc(-c2cnc3cc(C4CN(C)C4)ccn23)cc(OC(F)F)c1C(=O)NC1CC1 [Cpd 91, N-cyclopropyl-2-(difluoromethoxy)-6-methoxy-4-[7-(1-methylazetidin-3-yl)imidazo[1,2-a]pyridin-3-yl]benzamide]	> 500	100 to 500	10 to 100
COc1cc(-c2cnc3cc(C(C)(C)C#N)ccn23)cc(OC(F)F)c1C(=O)N[C@H]1CCCC[C@@H]1N [Cpd 92, N-[(1S,2S)-2-aminocyclohexyl]-4-[7-(1-cyano-1-methyl-ethyl)imidazo[1,2-a]pyridin-3-yl]-2-(difluoromethoxy)-6-methoxy-benzamide]	> 500	> 500	10 to 100
COc1cc(-c2cnc3cc(C(C)(C)C#N)ccn23)cc(OC(F)F)c1C(=O)N1CC(NC(=O)OC(C)(C)C)C1 [Cpd 94, tert-butyl N-[1-[4-[7-(1-cyano-1-methyl-ethyl)imidazo[1,2-a]pyridin-3-yl]-2-(difluoromethoxy)-6-methoxy-benzoyl]azetidin-3-yl]carbamate]	> 500	> 500	> 500
COc1cc(-c2cnc3cc(C(C)(C)C#N)ccn23)cc(OC(F)F)c1C(=O)N1CC(CO)C1 [Cpd 97, 2-[3-[3-(difluoromethoxy)-4-[3-(hydroxymethyl)azetidine-1-carbonyl]-5-methoxy-phenyl]imidazo[1,2-a]pyridin-7-yl]-2-methyl-propanenitrile]	> 500	> 500	10 to 100
COc1cc(-c2cnc3cc(C(C)(C)C#N)ccn23)cc(OC(F)F)c1C(=O)N1CC(OC)C1 [Cpd 98, 2-[3-[3-(difluoromethoxy)-5-methoxy-4-(3-methoxyazetidine-1-carbonyl)phenyl]imidazo[1,2-a]pyridin-7-yl]-2-methyl-propanenitrile]	> 500	> 500	10 to 100
